In PubChem BioAssay (NCI):
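In this assay, cells in 96-well plates receive the compound at five concentrations for 48 hours. Endpoints are linearly interpolated between the surrounding concentrations. Definition used: TGI = concentration required for complete inhibition of growth.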

Legend:
Assay in all cases: NCI-60 cell line screen, 48 h
OVCAR-5 ovarian = test system: OVCAR-5 ovarian
HS 578T breast = test system: HS 578T breast
IGROV1 ovarian = test system: IGROV1 ovarian
MDA-MB-435 = test system: MDA-MB-435
SF-268 CNS = test system: SF-268 CNS
SNB-75 CNS = test system: SNB-75 CNS
SF-295 CNS = test system: SF-295 CNS
NCI-H522 lung = test system: NCI-H522 lung
HOP-62 NSCLC = test system: HOP-62 NSCLC
MDA-MB-231 breast = test system: MDA-MB-231 breast
SR leukemia = test system: SR leukemia
U251 CNS = test system: U251 CNS
A498 renal = test system: A498 renal
SN12C renal = test system: SN12C renal
SK-MEL-5 melanoma = test system: SK-MEL-5 melanoma
SK-MEL-2 melanoma = test system: SK-MEL-2 melanoma
RXF 393 renal = test system: RXF 393 renal
K-562 leukemia = test system: K-562 leukemia
MCF7 breast = test system: MCF7 breast
SK-OV-3 ovarian = test system: SK-OV-3 ovarian
CCRF-CEM leukemia = test system: CCRF-CEM leukemia
HCC-2998 colon = test system: HCC-2998 colon
OVCAR-3 ovarian = test system: OVCAR-3 ovarian
HCT-15 colon = test system: HCT-15 colon
COLO 205 colon = test system: COLO 205 colon
SK-MEL-28 melanoma = test system: SK-MEL-28 melanoma
MDA-N = test system: MDA-N
DU-145 prostate = test system: DU-145 prostate
SF-539 CNS = test system: SF-539 CNS
SNB-19 CNS = test system: SNB-19 CNS
HL-60(TB) leukemia = test system: HL-60(TB) leukemia
TK-10 renal = test system: TK-10 renal
HT29 colon = test system: HT29 colon
A549 NSCLC = test system: A549 NSCLC
BT-549 breast = test system: BT-549 breast
UACC-257 melanoma = test system: UACC-257 melanoma
PC-3 prostate = test system: PC-3 prostate
LOX IMVI melanoma = test system: LOX IMVI melanoma
UACC-62 melanoma = test system: UACC-62 melanoma
KM12 colon = test system: KM12 colon
CAKI-1 renal = test system: CAKI-1 renal
OVCAR-8 ovarian = test system: OVCAR-8 ovarian
NCI-H460 lung = test system: NCI-H460 lung
ACHN renal = test system: ACHN renal
EKVX NSCLC = test system: EKVX NSCLC
M14 melanoma = test system: M14 melanoma
MOLT-4 leukemia = test system: MOLT-4 leukemia
NCI/ADR-RES ovarian = test system: NCI/ADR-RES ovarian
NCI-H226 lung = test system: NCI-H226 lung
MALME-3M melanoma = test system: MALME-3M melanoma
SW-620 colon = test system: SW-620 colon
HCT-116 colon = test system: HCT-116 colon
RPMI-8226 leukemia = test system: RPMI-8226 leukemia
786-0 renal = test system: 786-0 renal
NCI-H23 lung = test system: NCI-H23 lung
UO-31 renal = test system: UO-31 renal
T-47D breast = test system: T-47D breast
OVCAR-4 ovarian = test system: OVCAR-4 ovarian
HOP-92 NSCLC = test system: HOP-92 NSCLC

Measured: TGI

O=c1cc(CBr)c2ccc(O)cc2o1
91.1 µM: EKVX NSCLC
50.3 µM: HOP-62 NSCLC
77 µM: BT-549 breast
not listed: T-47D breast | OVCAR-4 ovarian | HOP-92 NSCLC
> 100 µM: all other assays above

Cn1nc(-c2ccccc2)nc1[N+](=O)[O-]
not listed: MCF7 breast
> 10 µM: all other assays above

CC(C)(C)[Si](C)(C)OCC1CCC(n2cnc3c(N)ncnc32)O1 (configuration not stated)
87 µM: BT-549 breast
85.2 µM: MDA-MB-435
34.4 µM: SK-MEL-5 melanoma
not listed: SF-268 CNS | NCI-H522 lung | SR leukemia | MCF7 breast | HCC-2998 colon | SF-539 CNS | A549 NSCLC | ACHN renal | EKVX NSCLC | NCI/ADR-RES ovarian | MALME-3M melanoma | 786-0 renal
> 100 µM: all other assays above

COc1ccc(/C=C2\CCCCCC2=O)cc1
not listed: HS 578T breast | SNB-75 CNS | HL-60(TB) leukemia
> 100 µM: all other assays above

O=C1c2ccccc2C2=Nc3ccncc3CN12
not listed: HS 578T breast | MDA-MB-435 | MDA-MB-231 breast | A498 renal | LOX IMVI melanoma | T-47D breast
> 100 µM: all other assays above

CCOP(=O)(OCC)c1ccc(=O)[nH]c1-c1cccs1
not listed: MDA-MB-231 breast | CCRF-CEM leukemia | HL-60(TB) leukemia | LOX IMVI melanoma
> 100 µM: all other assays above

COc1ccc2cc(/C=N\NC(=O)Nc3cccc4ccccc34)ccc2c1
65.7 µM: MDA-MB-231 breast
56.5 µM: TK-10 renal
29.6 µM: SR leukemia
76.6 µM: ACHN renal
29.9 µM: U251 CNS
86.4 µM: NCI-H460 lung
36.5 µM: K-562 leukemia
72.1 µM: OVCAR-4 ovarian
94.6 µM: HS 578T breast
25.5 µM: 786-0 renal
47.2 µM: SNB-75 CNS
31.3 µM: A498 renal
28.7 µM: HOP-62 NSCLC
41.8 µM: CCRF-CEM leukemia
53.5 µM: SNB-19 CNS
47.6 µM: CAKI-1 renal
30.5 µM: HCT-116 colon
not listed: SF-295 CNS | SK-OV-3 ovarian | OVCAR-3 ovarian | HL-60(TB) leukemia | UACC-62 melanoma | RPMI-8226 leukemia | T-47D breast | HOP-92 NSCLC
> 100 µM: all other assays above

CN1CCCCCC(=N\O)/C(=N/O)CCCCC1
not listed: SK-MEL-2 melanoma | SK-OV-3 ovarian | HCC-2998 colon | COLO 205 colon | UACC-62 melanoma | RPMI-8226 leukemia | T-47D breast | OVCAR-4 ovarian
> 100 µM: all other assays above
